Measurements reported in patent US20130157953A1, “TREATMENT OF CARDIAC CONDITIONS” (Zealand Pharma A/S, priority 2010, published 2013).
Numbered stars: 1 amine (or outer) side, 2 acyl side, 3 side chain; on linkers, the order of the positions; unused ones are H or OH. Square brackets hold non-standard residues; d marks the D form. Side chains are listed from the residue outwards. Ends that are not written are not given here. Peptide text beside a SMILES is read from it. * marks the point of attachment. γGlu = O=C(O)[C@H](CCC(=O)[*:2])N[*:1]; Palmitoyl = CCCCCCCCCCCCCCCC(=O)*; Aib = CC(C)(N)C(=O)O

Columns and labels:
[1] = test system: anesthetized male Sprague-Dawley rats; assay: Inotropic effect in vivo in anaesthetized rats (stroke work, heart rate); settings: for heart rate / increase in strokework: i.v. infusion; for heart rate: 0.2 and 0.5 nmol/kg/min; for increase in strokework: at a given infusion rate (up to 2.5 nmol/kg/min), 40% set as end point
Text: The rats were exposed to 5% isoflurane in 1:2 N2O:O2 until anesthesia were established.
A catheter was inserted into the left femoral vein for drug administration and a pressure-volume catheter was inserted into the left ventricle via the right carotid artery. After instrumentation, isoflurane was delivered in pure O2 during the experiment.
The horizontal line marks 40% increase in stroke work, which was defined as the maximal increase that should be obtained during the experiment.

human glucagon receptor = molecular target: T1, human glucagon receptor (Homo sapiens, UniProt P47871); assay: cAMP formation in HEK293 cells expressing the human glucagon receptor; type: cell-based; settings: 15 min at 37° C., read-out: EC50 (nM) GuR
T1 construct: expressed in transfected cells; host or cells: HEK293
T1 sequence (P47871 26-477): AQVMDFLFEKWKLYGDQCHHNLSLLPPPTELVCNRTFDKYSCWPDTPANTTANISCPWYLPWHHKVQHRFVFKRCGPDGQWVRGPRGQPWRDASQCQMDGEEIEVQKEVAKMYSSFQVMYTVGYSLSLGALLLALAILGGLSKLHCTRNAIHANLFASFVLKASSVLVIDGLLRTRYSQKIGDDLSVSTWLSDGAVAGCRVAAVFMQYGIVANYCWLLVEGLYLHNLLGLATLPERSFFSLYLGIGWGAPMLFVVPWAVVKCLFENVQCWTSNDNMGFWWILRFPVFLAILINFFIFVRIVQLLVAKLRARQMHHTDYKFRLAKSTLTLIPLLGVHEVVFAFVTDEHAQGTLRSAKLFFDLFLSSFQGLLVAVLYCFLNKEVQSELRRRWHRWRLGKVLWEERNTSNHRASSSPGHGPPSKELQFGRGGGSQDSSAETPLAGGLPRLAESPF
Text: Similarly, activation of the GLP-1 receptor by a GLP-1 agonist will stimulate cellular cAMP formation. Thus, production of cAMP in suitable cells expressing one of these two receptors can be used to monitor the relevant receptor activity.
The skilled person will be aware of suitable assay formats, and examples are provided below. […] (Where sequences of precursor proteins are referred to, it should of course be understood that assays may make use of the mature protein, lacking the signal sequence).
On the day of analysis, growth medium was removed and the cells washed once with 200 μl Tyrode buffer. Cells were incubated in […] containing increasing concentrations of test peptides, 100 μM IBMX, and 6 mM glucose for 15 min at 37° C. The reaction was stopped by addition of 25 μl 0.5 M HCl and incubated on ice for 60 min. The cAMP content was estimated using the FlashPlate® cAMP kit from Perkin-Elmer. EC50 values were estimated by computer aided curve fitting.

human GLP-1R = molecular target: T2, human GLP-1R (Homo sapiens, UniProt P43220); assay: cAMP formation in HEK293 cells expressing human GLP-1R; type: cell-based; settings: 15 min at 37° C.
T2 construct: expressed in transfected cells; host or cells: HEK293
T2 sequence (P43220 24-463): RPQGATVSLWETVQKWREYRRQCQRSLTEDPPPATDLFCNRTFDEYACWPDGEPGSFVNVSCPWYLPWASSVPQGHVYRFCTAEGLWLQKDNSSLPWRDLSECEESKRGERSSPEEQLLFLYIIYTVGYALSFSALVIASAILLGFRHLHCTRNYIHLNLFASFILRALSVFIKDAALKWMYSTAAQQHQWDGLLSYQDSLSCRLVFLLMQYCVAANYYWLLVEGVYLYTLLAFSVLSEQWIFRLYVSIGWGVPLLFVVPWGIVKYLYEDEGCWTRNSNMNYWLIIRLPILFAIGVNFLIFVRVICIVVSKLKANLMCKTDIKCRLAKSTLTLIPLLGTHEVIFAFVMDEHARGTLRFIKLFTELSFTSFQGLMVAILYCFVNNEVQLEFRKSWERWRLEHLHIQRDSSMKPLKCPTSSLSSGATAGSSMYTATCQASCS
Summary of the method: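 Test peptides at rising concentrations were incubated 15 min at 37° C in Tyrode buffer containing 6 mM glucose and 100 μM IBMX.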

[2] = test system: isolated working hearts from control and insulin-resistant JCR:LA-cp rats; assay: Inotropic effect and energy state in isolated working heart model; design: species or system rat; settings: compared with vehicle perfused hearts
Experimental: Following perfusions, high energy phosphate nucleotide concentrations were measured by high performance liquid chromatography (HPLC) (Ally, A and Park, G. Rapid determination of creatine, phosphocreatine, purine bases and nucleotides (ATP, ADP, AMP, GTP, GDP) in heart biopsies by gradient ion-pair reversed-phase liquid chromatography. Journal of Chromatography. 1992; 575: 19-27).

| Molecule | EC50 (human glucagon receptor) | EC50 (human GLP-1R) | further results |
| --- | --- | --- | --- |
| CC[C@H](C)[C@H](NC(=O)[C@H](Cc1ccccc1)NC(=O)[C@H](CC(=O)O)NC(=O)[C@H](CCCCN)NC(=O)[C@H](C)NC(=O)[C@H](CCCNC(=N)N)NC(=O)[C@H](CCCNC(=N)N)NC(=O)[C@H](CCC(=O)O)NC(=O)[C@H](CC(=O)O)NC(=O)[C@H](CC(C)C)NC(=O)[C@H](Cc1ccc(O)cc1)NC(=O)[C@H](CCCCN)NC(=O)[C@H](CO)NC(=O)[C@H](Cc1ccc(O)cc1)NC(=O)[C@H](CC(=O)O)NC(=O)[C@H](CO)NC(=O)[C@@H](NC(=O)[C@H](Cc1ccccc1)NC(=O)[C@@H](NC(=O)CNC(=O)[C@H](CCC(N)=O)NC(=O)[C@H](CO)NC(=O)[C@@H](N)Cc1c[nH]cn1)[C@@H](C)O)[C@@H](C)O)C(=O)N[C@@H](CCC(=O)O)C(=O)N[C@@H](Cc1c[nH]c2ccccc12)C(=O)N[C@@H](CC(C)C)C(=O)N[C@@H](CC(C)C)C(=O)N[C@@H](CO)C(=O)N[C@@H](C)C(N)=O [Compound 35] | – | – | heart rate [1]: tendency |
| CCCCCCCCCCCCCCCC(=O)N[C@@H](CCC(=O)NCCCC[C@H](NC(=O)[C@H](CO)NC(=O)[C@H](CC(=O)O)NC(=O)[C@H](CC(C)C)NC(=O)[C@H](Cc1ccc(O)cc1)NC(=O)[C@H](CCCCN)NC(=O)[C@H](CO)NC(=O)[C@H](Cc1ccc(O)cc1)NC(=O)[C@H](CC(=O)O)NC(=O)[C@H](CO)NC(=O)[C@@H](NC(=O)[C@H](Cc1ccccc1)NC(=O)[C@@H](NC(=O)CNC(=O)[C@H](CCC(N)=O)NC(=O)C(C)(C)NC(=O)[C@@H](N)Cc1c[nH]cn1)[C@@H](C)O)[C@@H](C)O)C(=O)N[C@@H](C)C(=O)N[C@@H](C)C(=O)N[C@@H](Cc1c[nH]cn1)C(=O)N[C@@H](CC(=O)O)C(=O)N[C@@H](Cc1ccccc1)C(=O)N[C@H](C(=O)N[C@@H](CCC(=O)O)C(=O)N[C@@H](Cc1c[nH]c2ccccc12)C(=O)N[C@@H](CC(C)C)C(=O)N[C@@H](CC(C)C)C(=O)N[C@@H](CCCNC(=N)N)C(=O)N[C@@H](C)C(N)=O)C(C)C)C(=O)O [Compound 206] (H-H[Aib]QGTFTSDYSKYLDSK([γGlu-Palmitoyl])AAHDFVEWLLRA-NH2) | 0.16 nM | 0.09 nM | duration of strokework increase ([1]; after end of compound infusion, during final vehicle infusion): prolonged increase in strokework that outlasted the compound infusion; increase in strokework [1]: 40% |
| H-HSQGTFTSDYSKYLDRARADDFVAWLKST-NH2 [Compound 12] | – | – | energetic state of the hearts [2]: not significantly different from vehicle perfused hearts |
| HSQGTFTSDYSKYLDRARADDFVAWLERA [Compound 9] | – | – | increase in strokework [1]: 40% |
| HSQGTFTSDYSKYLDSKAARDFVRWLKLA-NH2 [Compound 37] | – | – | heart rate [1]: tendency |

Second part, led by results:

| EC50 (human glucagon receptor) | EC50 (human GLP-1R) | Molecule | further results |
| --- | --- | --- | --- |
| 0.1 nM | 0.3 nM | H-HSQGTFTSDYSKYLDSRYAQDFVWLMNT-NH2 [Compound 247] | – |
| 0.2 nM | 0.2 nM | H-HSQGTFTSDYSRYLDSRRAQDFVWLLNK-NH2 [Compound 254] | – |
| 0.1 nM | 0.2 nM | H-HSQGTFTSDYSRYLDSRRAQDFVWLLNT-NH2 [Compound 253] | – |
